For data set [1] the following is noted: octanol/water.
The next data set addresses Carbonic anhydrase 1 (Homo sapiens, UniProt P00915).
Data set [2] can be described thus: Solubility in Chloroform buffer at pH 7.4. The class given is physicochemical.
For another data set, the target named is T1, Carbonic anhydrase 4 (Bos taurus, UniProt Q95323).
T1 sequence (Q95323 whole entry): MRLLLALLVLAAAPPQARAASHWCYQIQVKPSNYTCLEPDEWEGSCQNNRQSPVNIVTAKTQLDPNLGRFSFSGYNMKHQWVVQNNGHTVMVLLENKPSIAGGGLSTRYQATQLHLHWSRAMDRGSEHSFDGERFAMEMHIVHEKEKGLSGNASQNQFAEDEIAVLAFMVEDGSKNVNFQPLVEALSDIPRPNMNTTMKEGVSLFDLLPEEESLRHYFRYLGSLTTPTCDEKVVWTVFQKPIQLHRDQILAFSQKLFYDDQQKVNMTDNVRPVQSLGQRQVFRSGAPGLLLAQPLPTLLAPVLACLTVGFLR

Assay in data set [3]: not given
This is another data set of the same source.

Assay in data set [4]: not given
The source holds these as a separate data set.

Another data set is described as follows: physchem. The note with it: buffer, pH 5.5.
Assay in data set [5]: not given
This is another data set of the same source.

Values after ≈ are worked out from the molar mass of the structure shown.

Carbonic anhydrase 1, sequence (P00915 whole entry): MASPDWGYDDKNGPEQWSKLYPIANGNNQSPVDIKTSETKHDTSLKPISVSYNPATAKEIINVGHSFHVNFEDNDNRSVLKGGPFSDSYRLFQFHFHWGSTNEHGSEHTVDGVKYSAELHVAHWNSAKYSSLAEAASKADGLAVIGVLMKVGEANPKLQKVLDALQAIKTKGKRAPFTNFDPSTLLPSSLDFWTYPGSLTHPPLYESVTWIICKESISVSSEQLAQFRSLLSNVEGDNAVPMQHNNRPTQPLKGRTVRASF
Description for Carbonic anhydrase 1: Inhibitory activity against Human carbonic anhydrase I
Description for Carbonic anhydrase 4: Inhibitory activity against bovine carbonic anhydrase IV
Description for physchem: Solubility in buffer at pH 5.5

`Cn1nc(S(N)(=O)=O)s/c1=N/C(=O)CN(CCN(CC(=O)O)CC(=O)O)CC(=O)O`: the “Kin x10e3” value was 9.5 hr-1. The compound further showed a logD in data set [1] of 1.75. Further, on Carbonic anhydrase 1, the Ki amounted to 215 nM. Also, the solubility in data set [2] came to 65 mM (≈ 30.5 mg/mL). Also, the Ki at Carbonic anhydrase 4 turned out to be 26 nM. Besides, the “Kin x10e3” value in data set [3] is reported as 4.8 hr-1.
Compound `NS(=O)(=O)c1ccc(NC(=O)CN(CCOCCOCCN(CC(=O)O)CC(=O)Nc2ccc(S(N)(=O)=O)cc2F)CC(=O)O)c(F)c1` returned a logD in data set [1] of 1.534. In addition, the results for the Ki on Carbonic anhydrase 1 and on Carbonic anhydrase 4 were 155 nM and 16 nM, respectively. The “Kin x10e3” value was determined as 8.3 hr-1 in data set [4] and 4.5 hr-1 in data set [5]. This compound also yielded a solubility in “physchem” of 47 mM (≈ 34.1 mg/mL).
For `NS(=O)(=O)c1nnc(NC(=O)CCNC(=O)CN(CCN(CC(=O)O)c2ccccc2O)c2ccccc2O)s1`, the “Kin x10e3” value was 10.7 hr-1. Moreover, the logD in data set [1] is 2.354. On Carbonic anhydrase 1, this compound showed a Ki of 210 nM. Further, the solubility in [2] worked out at 44 mM (≈ 26.1 mg/mL). Moreover, the Ki on Carbonic anhydrase 4 was 35 nM. Besides, in data set [3], the “Kin x10e3” value was 5.1 hr-1.
Turning to `NS(=O)(=O)c1ccc(NC(=O)CN(CCN(CCN(CC(=O)O)CC(=O)O)CC(=O)O)CC(=O)O)cc1`, the “Kin x10e3” value is 6.9 hr-1. This compound also had a logD in data set [1] of 0.983. This compound also registered a solubility in [2] of 48 mM (≈ 26.3 mg/mL). Also, at Carbonic anhydrase 4, the Ki is 180 nM. The “Kin x10e3” value in data set [3] is 3.8 hr-1.
Regarding `NS(=O)(=O)c1ccc(NC(=O)CN(CCN(CCN(CC(=O)O)CC(=O)Nc2ccc(S(N)(=O)=O)cc2)CC(=O)O)CC(=O)O)cc1`, the “Kin x10e3” value was 4.5 hr-1. Further, in data set [1], the logD came out at 1.456. In data set [2], this compound returned a solubility of 35 mM (≈ 24.6 mg/mL). Moreover, on Carbonic anhydrase 4, the Ki amounted to 156 nM. Also, the “Kin x10e3” value in data set [3] is 3.6 hr-1.
For `NS(=O)(=O)c1cc(S(N)(=O)=O)c(NC(=O)CN(CCN(CC(=O)O)CC(=O)Nc2c(S(N)(=O)=O)cc(S(N)(=O)=O)c(Cl)c2Cl)CC(=O)O)c(Cl)c1Cl`, the “Kin x10e3” value stood at 7 hr-1. In addition, the logD in [1] stood at 1.764. The compound also yielded a Ki on Carbonic anhydrase 1 of 65 nM. The compound further displayed a solubility in data set [2] of 32 mM (≈ 28.7 mg/mL). Affinity on Carbonic anhydrase 4 was put at a Ki of 51 nM. Further, the “Kin x10e3” value in [3] turned out to be 3.6 hr-1.
Turning to `Cn1nc(S(N)(=O)=O)s/c1=N/C(=O)CN(CCN(CC(=O)O)CC(=O)/N=c1/sc(S(N)(=O)=O)nn1C)CC(=O)O`, the “Kin x10e3” value is on record as 5.5 hr-1. Further, the logD in data set [1] was 1.333. This compound had a solubility in [2] of 41 mM (≈ 26.4 mg/mL). Also, on Carbonic anhydrase 4, the Ki is 17 nM. In addition, the “Kin x10e3” value in data set [3] was determined as 3.1 hr-1.
`NS(=O)(=O)C1N=NC(NC(=O)CN(CCN(CCN(CC(=O)O)CC(=O)NC2N=NC(S(N)(=O)=O)S2)CC(=O)O)CC(=O)O)S1` (centres undefined) displayed a logD in [1] of 1.961. Moreover, the “Kin x10e3” value in [4] is listed as 6.2 hr-1; in data set [5], 3.9 hr-1. Also, the solubility in the data set “physchem” was determined as 54 mM (≈ 39 mg/mL). This compound came in with a Ki at Carbonic anhydrase 4 of 7 nM.
For `NS(=O)(=O)c1nc2ccc(OCCOC(=O)CN(CCOCCOCCN(CC(=O)O)CC(=O)OCCOc3ccc4nc(S(N)(=O)=O)sc4c3)CC(=O)O)cc2s1`, the Ki came to 15 nM on Carbonic anhydrase 1 and 5 nM at Carbonic anhydrase 4.
Consider `NS(=O)(=O)c1cc(S(N)(=O)=O)c(NC(=O)CN(CCN(CC(=O)O)c2ccccc2O)c2ccccc2O)c(Cl)c1Cl`, for which the Ki at Carbonic anhydrase 1 stood at 250 nM; at Carbonic anhydrase 4, 105 nM.
As for `NS(=O)(=O)c1ccc(NC(=O)CN(CC(=O)O)CC(=O)O)c(I)c1`, the Ki at Carbonic anhydrase 1 was 510 nM; at Carbonic anhydrase 4, 110 nM.
As for `NS(=O)(=O)c1nnc(NC(=O)CCNC(=O)CN(CC(=O)O)CC(=O)O)s1`, the Ki at Carbonic anhydrase 1 turned out to be 268 nM; at Carbonic anhydrase 4, 45 nM.
The like results for `NS(=O)(=O)c1ccc(NC(=O)CNCC(=O)O)cc1` were, in that order, 21300 nM and 450 nM.
`Cn1nc(S(N)(=O)=O)s/c1=N/C(=O)CN(CCN(CCN(CC(=O)O)CC(=O)/N=c1/sc(S(N)(=O)=O)nn1C)CC(=O)O)CC(=O)O`: the Ki at Carbonic anhydrase 1 turned out to be 43 nM; on Carbonic anhydrase 4, 5 nM.
Regarding `NS(=O)(=O)c1nc2ccc(OC(=O)CN(CC(=O)O)CC(=O)O)cc2s1`, the Ki at Carbonic anhydrase 1 stood at 48 nM; on Carbonic anhydrase 4, 13 nM.
With `NS(=O)(=O)c1cc(S(N)(=O)=O)c(NC(=O)CN(CCOCCOCCN(CC(=O)O)CC(=O)O)CC(=O)O)cc1Cl`, the Ki turned out to be 93 nM on Carbonic anhydrase 1 and 65 nM at Carbonic anhydrase 4.
In the case of `NS(=O)(=O)c1ccc(NC(=O)CN(CCN(CC(=O)O)CC(=O)Nc2ccc(S(N)(=O)=O)cc2F)CC(=O)O)c(F)c1`, the values for the Ki on Carbonic anhydrase 1 and on Carbonic anhydrase 4 were 240 nM and 35 nM, respectively.
In the case of `NS(=O)(=O)c1ccccc1NC(=O)CN(CCOCCOCCN(CC(=O)O)CC(=O)O)CC(=O)O`, the inhibition constant (Ki) stood at 8900 nM on Carbonic anhydrase 1 and 545 nM on Carbonic anhydrase 4.
As for `NS(=O)(=O)c1nnc(NC(=O)CN(CCOCCOCCN(CC(=O)O)CC(=O)Nc2nnc(S(N)(=O)=O)s2)CC(=O)O)s1`, the Ki at Carbonic anhydrase 1 worked out at 55 nM; at Carbonic anhydrase 4, 4 nM.
The like results for `NS(=O)(=O)c1ccc(CNC(=O)CN(CCOCCOCCN(CC(=O)O)CC(=O)O)CC(=O)O)cc1` were, in that order, 610 nM and 48 nM.
Take `NS(=O)(=O)c1ccc(NC(=O)CN(CCOCCOCCN(CC(=O)O)CC(=O)O)CC(=O)O)c(Cl)c1`: the Ki stood at 230 nM on Carbonic anhydrase 1 and 30 nM at Carbonic anhydrase 4.
The like results for `NS(=O)(=O)c1cc(S(N)(=O)=O)c(NC(=O)CN(CCN(CC(=O)O)c2ccccc2O)c2ccccc2O)cc1Cl` were, in that order, 240 nM and 123 nM.
For `NS(=O)(=O)c1nnc(NC(=O)CNCCNCC(=O)O)s1`, in that order: 250 nM and 130 nM.
For the compound `NS(=O)(=O)c1ccc(NC(=O)CN(CC(=O)O)CC(=O)O)c(Cl)c1`, the Ki on Carbonic anhydrase 1 came out at 960 nM; on Carbonic anhydrase 4, 150 nM.
For `NS(=O)(=O)c1ccc(COC(=O)CN(CCN(CC(=O)O)CC(=O)OCc2ccc(S(N)(=O)=O)cc2)CC(=O)O)cc1`, the Ki amounted to 460 nM on Carbonic anhydrase 1 and 200 nM on Carbonic anhydrase 4.
For `NS(=O)(=O)c1ccc(NC(=O)CN(CCOCCOCCN(CC(=O)O)CC(=O)Nc2ccc(S(N)(=O)=O)cc2)CC(=O)O)cc1` [listing 1 of 2 here], the Ki on Carbonic anhydrase 1 was found to be 3800 nM; on Carbonic anhydrase 4, 150 nM.
`NS(=O)(=O)c1cc(S(N)(=O)=O)c(NC(=O)CNCCNCC(=O)O)c(Cl)c1Cl`: the results for the Ki at Carbonic anhydrase 1 and at Carbonic anhydrase 4 were 290 nM and 110 nM, respectively.
The like results for `NS(=O)(=O)c1ccc(NNC(=O)CN(CCN(CC(=O)O)c2ccccc2O)c2ccccc2O)cc1` were, in that order, 21000 nM and 840 nM.
As for `NS(=O)(=O)c1nnc(NC(=O)CN(CCN(CCN(CC(=O)O)CC(=O)O)CC(=O)O)CC(=O)O)s1`, the “Kin x10e3” value stood at 8.1 hr-1. Also, the logD in data set [1] stood at 1.375. In addition, the concentration in solution in data set [2] (solubility) came to 59 mM (≈ 32.8 mg/mL). Besides, on Carbonic anhydrase 4, affinity was put at a Ki of 28 nM. Besides, the “Kin x10e3” value in [3] worked out at 4.3 hr-1.
Regarding `NS(=O)(=O)c1nnc(NC(=O)CCNC(=O)CN(CCN(CC(=O)O)CC(=O)O)CC(=O)O)s1`, the values for the Ki on Carbonic anhydrase 1 and on Carbonic anhydrase 4 were 200 nM and 23 nM, respectively.
Consider `NS(=O)(=O)c1ccc(CCNC(=O)CN(CCOCCOCCN(CC(=O)O)CC(=O)NCCc2ccc(S(N)(=O)=O)cc2)CC(=O)O)cc1`, for which the Ki at Carbonic anhydrase 1 amounted to 30 nM; at Carbonic anhydrase 4 it was 12 nM.
With `NS(=O)(=O)c1nc2ccc(NC(=O)CN(CCN(CC(=O)O)CC(=O)Nc3ccc4nc(S(N)(=O)=O)sc4c3)CC(=O)O)cc2s1`, the results for the Ki at Carbonic anhydrase 1 and on Carbonic anhydrase 4 were 33 nM and 9 nM, respectively.
Regarding `NS(=O)(=O)c1cc(S(N)(=O)=O)c(NC(=O)CN(CCN(CC(=O)O)CC(=O)Nc2cc(Cl)c(S(N)(=O)=O)cc2S(N)(=O)=O)CC(=O)O)cc1Cl`, the Ki worked out at 72 nM at Carbonic anhydrase 1 and 69 nM at Carbonic anhydrase 4.
For `NS(=O)(=O)c1ccc(CNC(=O)CN(CCOCCOCCN(CC(=O)O)CC(=O)NCc2ccc(S(N)(=O)=O)cc2)CC(=O)O)cc1`, the Ki at Carbonic anhydrase 1 is 35 nM; at Carbonic anhydrase 4, 16 nM.
As for `NS(=O)(=O)c1ccc(NC(=O)CN(CCOCCOCCN(CC(=O)O)CC(=O)Nc2ccc(S(N)(=O)=O)cc2Cl)CC(=O)O)c(Cl)c1`, the Ki on Carbonic anhydrase 1 stood at 150 nM; on Carbonic anhydrase 4, 22 nM.
In the case of `NS(=O)(=O)c1nc2ccc(NC(=O)CN(CCN(CC(=O)O)CC(=O)O)CC(=O)O)cc2s1`, the results for the Ki on Carbonic anhydrase 1 and on Carbonic anhydrase 4 were 48 nM and 11 nM, respectively.
For the compound `NS(=O)(=O)c1nnc(NC(=O)CN(CC(=O)O)CC(=O)O)s1`, the Ki at Carbonic anhydrase 1 was 410 nM; on Carbonic anhydrase 4, 240 nM.
In the case of `NS(=O)(=O)c1nc2ccc(OC(=O)CN(CCN(CC(=O)O)c3ccccc3O)c3ccccc3O)cc2s1`, the Ki worked out at 47 nM on Carbonic anhydrase 1 and 12 nM on Carbonic anhydrase 4.
For `NS(=O)(=O)c1cc(S(N)(=O)=O)c(NC(=O)CN(CC(=O)O)CC(=O)O)cc1Cl`, the Ki came to 300 nM on Carbonic anhydrase 1 and 148 nM at Carbonic anhydrase 4.
The like results for `NS(=O)(=O)c1ccc(NC(=O)CN(CC(=O)O)CC(=O)O)c(Br)c1` were, in that order, 620 nM and 53 nM.
The like results for `NS(=O)(=O)c1nnc(NC(=O)CN(CCN(CC(=O)O)CC(=O)O)CC(=O)O)s1` were, in that order, 225 nM and 37 nM.
For the compound `NS(=O)(=O)c1ccc(NC(=O)CN(CCOCCOCCN(CC(=O)O)CC(=O)Nc2ccc(S(N)(=O)=O)cc2)CC(=O)O)cc1` [listing 2 of 2 here], the inhibition constant Ki on Carbonic anhydrase 1 stood at 300 nM; at Carbonic anhydrase 4, 76 nM.
For `NS(=O)(=O)c1nc2ccc(OC(=O)CN(CCN(CC(=O)O)CC(=O)Oc3ccc4nc(S(N)(=O)=O)sc4c3)CC(=O)O)cc2s1`, in that order: 37 nM and 8 nM.
The like results for `NS(=O)(=O)c1nc2ccc(OC(=O)CN(CCOCCOCCN(CC(=O)O)CC(=O)O)CC(=O)O)cc2s1` were, in that order, 33 nM and 5 nM.

The logD is lipophilicity at a set pH, counting ionised and neutral species. A higher logD goes with a more lipophilic compound. For orientation: Ki means a measure of affinity in units of concentration, obtained from inhibition or displacement. The low end stands for a stronger hold on the target, the high end for a looser hold on the target. What is called solubility is the concentration that dissolves in the medium under given conditions.
